Reference: patent US4657897A, “N^6 -substituted adenosines for treating pain” (Warner-Lambert Company, priority 1985, dated 1987)

Test system: rat heart
Assay: Coronary blood flow (PCS2A), isolated perfused rat heart
Design: species or system rat (male)
Details: read-out: effect on heart rate (HR)
Description: Male rats (400-600 gms) are pretreated with Na heparin 2000 units and anesthetized with Na pentobarbital (50 mg/kg) administered intraperitoneally. Once anesthetized, the rat heart is rapidly excised, the ascending aorta fitted to the aortic perfusion cannula, and secured with a ligature. The coronary arteries are perfused initially at a rate of about 15 ml/min for two to three minutes, afterwhich they are perfused at constant pressure of 70 mm Hg and temperature of 37° C. The electrocardiogram (ECG) is recorded using two platinum electrodes positioned at the base and apex of the left ventricle. A second heart is excised, cannulated, and perfused by the same method outlined above. Both hearts are tested in parallel. The standard physiological salt solution (PSS) is a modified Krebs-Hanseleit bicarbonate buffer of the following composition in mM concentration: NaCl, 127; NaHCO3, 25; dextrose, 5.5; Na Pyruvate, 2.0; KCl, 4.7; MgSO4, 1.1; KH 2PO4, 1.2; CaCl2.2H2 O, 2.5; CaNa2 EDTA, 0.05.
A 30-minute stabilization period is observed before starting the test protocol.
The microprocessor control system is a servo mechanism which permits coronary perfusion pressure (CPP) and drug concentration to be maintained constant independent of changes in coronary flow. The level at which CPP and drug concentration are maintained can be changed by commands communicated through the microprocessor keyboard. Dose-response curves are carried out by perfusing concentrated drug solution (DC) at rates proportional to total coronary flow (CFT). Drug concentrations are increased by proportionate increases in the rate of DC infusion over CFT via the microprocessor keyboard. The proportional flow rates for DC:CFT is about 0.0002:1 at the low end and 0.02:1 at the high end of the dose-response curve. Dose-response curves encompassing at least two log doses are carried out by preparing two DCs with a concentration difference of 1:100. Following the first dose range of two log doses, the DC are switched, proportional pumping rate adjusted, and the dose-responsecurve continued for another two log doses. The standard dose-response curve is carried out in one-half log dose increments starting at a subthreshold dose and ending at a dose which produces near maximal response in activity. Standard reference compounds are tested over the range of 10^-9 to 10^-6 M.
Measurements are for heart rate (HR) and coronary flow (CF). Units are: HR, beats/minute (bpm) and CF, milliliters/minute (ml/min). HR is calculated from the ECG strip chart recording and CF is calculated by recording analog outputs from pumps 1 and 2. Outputs from pump #1=CFT and the output from pump #2=CF for heart B (CFB). CF for heart A (CFA) is calculated (CFT -CFB =CFA).

With `OC[C@H]1O[C@@H](n2cnc3c(NCCC(c4ccccc4)c4ccccc4)ncnc32)[C@H](O)[C@@H]1O` [Example 2, N^6-(3,3-Diphenylpropyl)adenosine] the activation at 1 µM (1 × 10^-6 Molar) was -19%, the activation at 0.1 µM (1 × 10^-7 Molar) was -5% and the activation at 0.01 µM (1 × 10^-8 Molar) was -2%. For the same compound, the activation at 3 µM (3 × 10^-6 Molar) was -34%.
